The source of these data is patent publication US20240277683A1, “COMPOUNDS” (CTXT PTY LTD, priority 2018, published 2024).

Where two headings read alike, the source gives them in different places.

Common to all, as to assay type: cell-based
Settings in all cases: Homo sapiens

Assay [1] relates to acetylation of the histone H3K23 marker in U2OS cells. Description: Histone H3 Lysine 23 Acetylation Biomarker Assay. The protocol: Compounds may be tested for their ability to inhibit acetylation of the histone H3K23 marker in the following assay:
The cell line U2OS was seeded at a density of 9,000 cells per well in 96 well optical quality tissue culture plates in RPMI medium and 10% foetal bovine serum, and allowed to adhere for 24 hours under standard culture conditions (37 degree Celsius, 5% CO2). At the end of this period the medium was aspirated. […] After incubation for 24 hours, the cells were fixed with 3.7% formaldehyde in PBS for 20 minutes at room temperature, washed (5×5 minutes) with phosphate buffer saline containing 0.1% Tween 20 and blocked with Odyssey blocking buffer (LI-COR, Lincoln, NE) containing 0.1% TritonX100. Anti-H3K23ac specific antibody (Abcam ab177275) in Odyssey blocking buffer containing 0.1% Tween 20 was added and incubated for 16 hours at 4 degree Celsius. […] Plates were washed as previously and read on a PerkinElmer Phenix high content imaging platform.

Assay [2] concerns acetylation of the histone H3 Lysine 14 marker in U2OS cells. Description: Histone H3 Lysine 14 Acetylation Biomarker Assay. The procedure:
Compounds may be tested for their ability to inhibit acetylation of the histone H3 Lysine 14 marker in the following assay:
(§1) The cell line U2OS was seeded at a density of 3,000 cells per well in 384-well optical quality tissue culture plates in RPMI medium supplemented with 10% foetal bovine serum and 10 mM Hepes. The cells were allowed to adhere for 24 hours under standard culture conditions (37 degree Celsius, 5% CO2). At the end of this period the cells were washed with serum free medium. […] Plates were washed and read on a PerkinElmer Opera HCS high content imaging platform.

In assay [3] the test system is histone H2A.Z Lysine 7 acetylation marker in U2OS cells. Description: H2A.Z Lysine 7 Acetylation Biomarker Assay. The procedure:
Compounds may be tested for their ability to inhibit the histone H2A.Z Lysine 7 acetylation marker in the following assay:
as §1

Where [4] appears, read: H3K14ac, U2OS cells, serum free medium, 24 hours, read-out: IC50.
Where [5] appears, read: H3K23ac, U2OS cells, 24 hours, read-out: IC50.
[6] abbreviates: H2A.ZK7ac, U2OS cells, serum free medium, 24 hours, read-out: IC50.

For `COc1ccccc1-c1cc(NS(=O)(=O)Cc2ccccc2)no1` [Example 2, N-(5-(2-Methoxyphenyl)isoxazol-3-yl)-1-phenylmethanesulfonamide], in assay [1] (U2OS, 24 h), the IC50 (usually the concentration that gives 50% inhibition) is more than 10000 nM.

As to `COc1ccccc1-c1cc(NS(=O)(=O)c2ccccc2)no1` [Example 3, N-(5-(2-Methoxyphenyl)isoxazol-3-yl)benzenesulfonamide], the IC50 in assay [2] (U2OS, 24 h) was 39200 nM; in assay [1] (U2OS, 24 h), more than 10000 nM; in assay [3] (U2OS, 24 h), more than 40000 nM.

Regarding `COc1ccccc1-c1cc(NS(=O)(=O)CCc2ccccc2)no1` [Example 4, N-(5-(2-Methoxyphenyl)isoxazol-3-yl)-2-phenylethane-1-sulfonamide], in assay [1] (U2OS, 24 h), the IC50 is more than 10000 nM.

As to `CCOc1ccccc1-c1cc(NS(=O)(=O)c2c(OC)cccc2OC)no1` [Example 5, N-(5-(2-Ethoxyphenyl)isoxazol-3-yl)-2,6-dimethoxybenzenesulfonamide], the IC50 in assay [2] (U2OS, 24 h) worked out at 2330 nM; in assay [1] (U2OS, 24 h), 895 nM; in assay [3] (U2OS, 24 h), 5640 nM.

With `COc1ccc(OC)c(-c2cc(NS(=O)(=O)c3c(OC)cc(-c4ccccc4)cc3OC)no2)c1` [Example 6, N-(5-(2,5-Dimethoxyphenyl)isoxazol-3-yl)-3,5-dimethoxy-[1,1′-biphenyl]-4-sulfonamide], the IC50 was found to be 526 nM in assay [2] (U2OS, 24 h); 471 nM in assay [1] (U2OS, 24 h); 1350 nM in assay [3] (U2OS, 24 h).

For the molecule `COc1ccc(OC)c(-c2cc(NS(=O)(=O)c3c(OC)cccc3OC)no2)c1` [Example 7, N-(5-(2,5-Dimethoxyphenyl)isoxazol-3-yl)-2,6-dimethoxybenzenesulfonamide], the IC50 in assay [2] (U2OS, 24 h) worked out at 496 nM; in assay [1] (U2OS, 24 h) it was 49.1 nM; in assay [3] (U2OS, 24 h), 2190 nM.

As for `COc1ccc(C2CC2)cc1-c1cc(NS(=O)(=O)c2c(OC)cccc2OC)no1` [Example 8, N-(5-(5-Cyclopropyl-2-methoxyphenyl)isoxazol-3-yl)-2,6-dimethoxybenzenesulfonamide], the IC50 amounted to 345 nM in assay [2] (U2OS, 24 h); 51.8 nM in assay [1] (U2OS, 24 h); 3270 nM in assay [3] (U2OS, 24 h).

Consider `COc1ccccc1-c1cc(NS(=O)(=O)c2c(OC)ccc(-c3ccccc3)c2OC)no1` [Example 10, 2,4-Dimethoxy-N-(5-(2-methoxyphenyl)isoxazol-3-yl)-[1,1′-biphenyl]-3-sulfonamide], for which the IC50 in assay [2] (U2OS, 24 h) is 4140 nM; in assay [3] (U2OS, 24 h), more than 40000 nM.

For `COc1ccccc1-c1cc(NS(=O)(=O)c2c(OC)cc(-c3ccccc3)cc2OC)no1` [Example 11, 3,5-Dimethoxy-N-(5-(2-methoxyphenyl)isoxazol-3-yl)-[1,1′-biphenyl]-4-sulfonamide], the 50% inhibitory concentration (IC50) in assay [2] (U2OS, 24 h) was 2740 nM; in assay [3] (U2OS, 24 h), 5320 nM.

Consider `CCc1ccc(OC)c(S(=O)(=O)Nc2cc(-c3ccc(OC)cc3OC)on2)c1` [Example 12, N-(5-(2,4-Dimethoxyphenyl)isoxazol-3-yl)-5-ethyl-2-methoxybenzenesulfonamide], for which the IC50 in assay [2] (U2OS, 24 h) is more than 40000 nM; in assay [3] (U2OS, 24 h) it was more than 40000 nM.

The molecule `CCc1ccc(OC)c(S(=O)(=O)Nc2cc(-c3cccc(OC)c3)on2)c1` [Example 13, 5-Ethyl-2-methoxy-N-(5-(3-methoxyphenyl)isoxazol-3-yl)benzenesulfonamide] yielded an IC50 in assay [2] (U2OS, 24 h) of 22400 nM.

Take `COc1ccc(OC(C)C)c(-c2cc(NS(=O)(=O)c3c(OC)cccc3OC)no2)c1` [Example 14, N-(5-(2-Isopropoxy-5-methoxyphenyl)isoxazol-3-yl)-2,6-dimethoxybenzenesulfonamide]: the IC50 turned out to be 220 nM in assay [2] (setting [4]), 132 nM in assay [1] (setting [5]) and 2500 nM in assay [3] (setting [6]).

As for `COc1ccc(Cl)cc1-c1cc(NS(=O)(=O)c2c(OC)cccc2OC)no1` [Example 15, N-(5-(5-Chloro-2-methoxyphenyl)isoxazol-3-yl)-2,6-dimethoxybenzenesulfonamide], the IC50 in assay [2] (setting [4]) came out at 450 nM; in assay [1] (setting [5]), 141 nM; in assay [3] (setting [6]), 12100 nM.

Consider `CCOc1ccc(OC)cc1-c1cc(NS(=O)(=O)c2c(OC)cccc2OC)no1` [Example 16, N-(5-(2-Ethoxy-5-methoxyphenyl)isoxazol-3-yl)-2,6-dimethoxybenzenesulfonamide], for which the IC50 in assay [2] (setting [4]) came to 193 nM; in assay [1] (setting [5]), 117 nM; in assay [3] (setting [6]), 1770 nM.

On to `COc1ccccc1-c1nnc(NS(=O)(=O)c2c(OC)cccc2OC)s1` [Example 17, 2,6-Dimethoxy-N-(5-(2-methoxyphenyl)-1,3,4-thiadiazol-2-yl)benzenesulfonamide], for which the results for the IC50 in assay [2] (setting [4]), in assay [1] (setting [5]) and in assay [3] (setting [6]) were 3200 nM, 2260 nM and 29300 nM, respectively.

Regarding `COc1ccc(-c2ncco2)cc1-c1cc(NS(=O)(=O)c2c(OC)cccc2OC)no1` [Example 18, 2,6-Dimethoxy-N-(5-(2-methoxy-5-(oxazol-2-yl)phenyl)isoxazol-3-yl)benzenesulfonamide], the IC50 was 3840 nM in assay [2] (setting [4]), 1530 nM in assay [1] (setting [5]) and 19900 nM in assay [3] (setting [6]).

On to `COc1ccc(CC2CCCCC2)cc1-c1cc(NS(=O)(=O)c2c(OC)cccc2OC)no1` [Example 19, N-(5-(5-(Cyclohexylmethyl)-2-methoxyphenyl)isoxazol-3-yl)-2,6-dimethoxybenzenesulfonamide], for which the IC50 in assay [1] (setting [5]) is more than 10000 nM; in assay [3] (setting [6]), 5420 nM.

As for `COc1cc(Cl)ccc1-c1cc(NS(=O)(=O)c2c(OC)cccc2OC)no1` [Example 21, N-(5-(4-Chloro-2-methoxyphenyl)isoxazol-3-yl)-2,6-dimethoxybenzenesulfonamide], the IC50 in assay [2] (setting [4]) and in assay [3] (setting [6]) was more than 40000 nM each time.

On to `COc1cccc(OC)c1S(=O)(=O)Nc1cc(-c2ccccc2OC(F)(F)F)on1` [Example 22, 2,6-Dimethoxy-N-(5-(2-(trifluoromethoxy)phenyl)isoxazol-3-yl)benzenesulfonamide], for which the IC50 in assay [2] (U2OS, 24 h) stood at 762 nM; in assay [1] (U2OS, 24 h), 2130 nM; in assay [3] (U2OS, 24 h), 4770 nM.

As for `CCc1ccc(OC)cc1-c1cc(NS(=O)(=O)c2c(OC)cccc2OC)no1` [Example 23, N-(5-(2-Ethyl-5-methoxyphenyl)isoxazol-3-yl)-2,6-dimethoxybenzenesulfonamide], the IC50 was determined as 216 nM in assay [2] (setting [4]), 178 nM in assay [1] (setting [5]) and 9990 nM in assay [3] (setting [6]).

Turning to `COc1ccccc1-c1cc(NS(=O)(=O)c2c(OC)cccc2OC)no1` [Example 56, 2,6-Dimethoxy-N-(5-(2-methoxyphenyl)isoxazol-3-yl)benzenesulfonamide], the IC50 in assay [2] (U2OS, 24 h) came out at 2640 nM; in assay [1] (U2OS, 24 h), 2070 nM; in assay [3] (U2OS, 24 h) it was 24100 nM.

Regarding `COc1ccc(S(=O)(=O)Nc2cc(-c3ccccc3OC)on2)c(OC)c1` [Example 57, 2,4-Dimethoxy-N-(5-(2-methoxyphenyl)isoxazol-3-yl)benzenesulfonamide], the IC50 in assay [2] (U2OS, 24 h) was more than 40000 nM.

Regarding `CCc1ccc(OC)c(S(=O)(=O)Nc2cc(-c3ccccc3OC)on2)c1` [Example 58, 5-Ethyl-2-methoxy-N-(5-(2-methoxyphenyl)isoxazol-3-yl)benzenesulfonamide], the IC50 in assay [2] (U2OS, 24 h) was 22400 nM; in assay [3] (U2OS, 24 h), more than 40000 nM.

Turning to `COc1ccc(OC)c(-c2nnc(NS(=O)(=O)c3c(OC)cccc3OC)s2)c1` [Example 70, N-(5-(2,5-Dimethoxyphenyl)-1,3,4-thiadiazol-2-yl)-2,6-dimethoxybenzenesulfonamide], in assay [1] (setting [5]), the IC50 turned out to be 275 nM.

In the case of `COCc1ccc(OC)cc1-c1cc(NS(=O)(=O)c2c(OC)cccc2OC)no1` [Example 71, 2,6-Dimethoxy-N-(5-(5-methoxy-2-(methoxymethyl)phenyl)isoxazol-3-yl)benzenesulfonamide], the half-maximal inhibitory concentration (IC50) in assay [1] (setting [5]) came out at 69.3 nM.

Consider `COc1ccccc1-c1cc(NS(=O)(=O)C2CCCCC2)no1` [Example 102, N-(5-(2-Methoxyphenyl)isoxazol-3-yl)cyclohexanesulfonamide], for which the results for the IC50 in assay [2] (setting [4]) and in assay [3] (setting [6]) were 25600 nM and more than 40000 nM, respectively.

With `COc1cccc(OC)c1S(=O)(=O)Nc1nnc(-c2cc(Cl)ccc2OC(C)C)s1` [Example 111, N-(5-(5-Chloro-2-isopropoxyphenyl)-1,3,4-thiadiazol-2-yl)-2,6-dimethoxybenzenesulfonamide], the IC50 in assay [1] (setting [5]) amounted to 474 nM.

Turning to `COCc1ccc(OC)c(-c2cc(NS(=O)(=O)Cc3ccccc3)no2)c1` [Example 112, N-(5-(2-Methoxy-5-(methoxymethyl)phenyl)isoxazol-3-yl)-1-phenylmethanesulfonamide], the IC50 in assay [1] (setting [5]) was determined as 187 nM.

Molecule `COc1ccccc1-c1cc(NS(=O)(=O)NC2CCCCC2)no1` [Example 117, N-Cyclohexyl((5-(2-methoxyphenyl)-1,2-oxazol-3-yl)amino)sulfonamide] displayed an IC50 in assay [1] (U2OS, 24 h) of 5560 nM.

In the case of `COc1ccc(-c2ccnn2C)cc1-c1cc(NS(=O)(=O)c2c(OC)cccc2OC)no1` [Example 119, 2,6-Dimethoxy-N-(5-(2-methoxy-5-(1-methyl-1H-pyrazol-5-yl)phenyl)isoxazol-3-yl)benzenesulfonamide], in assay [1] (setting [5]), the IC50 turned out to be 634 nM.
